Patent publication US8575178B2, “Isothiazolo-pyrimidinedione derivatives as TRPA1 modulators” (Glenmark Pharmaceuticals S.A., priority 2009, dated 2013)
pIC50: −log10 of the molar value.

Experiments:
[1] = biological target: T1, human TRPA1 (Homo sapiens, UniProt O75762); experiment: 45Calcium uptake assay, inhibition of AITC induced calcium uptake in human TRPA1 expressing CHO cells; format: cell-based; conditions: AITC 30 μM; for inhibition at 1 µM: 1.0 μM compound, read-out: human TRPA1 Percentage inhibition at 1.0 μM; for inhibition at 10 µM: 10.0 μM compound, read-out: human TRPA1 Percentage inhibition at 10.0 μM
T1 construct: expressed in transfected cells; host or cells: CHO cells (G-418 selection)
Excerpt: (§1) The illustrative examples of the present invention are screened for TRPA1 activity according to a modified procedure described in (a) Tóth, A. et al. Life Sciences, 2003, 73, 487-498. (b) McNamara C, R. et al, Proc. Natl. Acad. Sci. U.S.A., 2007, 104, 13525-13530. The screening of the compounds can be carried out by other methods and procedures known to persons skilled in the art.
(§2) Screening for TRPA1 Antagonist Using the ^45Calcium Uptake Assay:
(§3) The inhibition of TRPA1 receptor activation was measured as inhibition of allyl isothiocyanate (AITC) induced cellular uptake of radioactive calcium.
(§4) Test compounds were dissolved in 100% DMSO to prepare 10 mM stock and then diluted using plain medium with 0.1% BSA and 1.8 mM CaCl2 to get the desired concentration. The final concentration of DMSO in the reaction was 0.5% (v/v). Human TRPA1 expressing CHO cells were grown in F-12 DMEM medium with 10% FBS, 1% penicillin-streptomycin solution, and 400 μg/ml of G-418. Rat TRPA1 expressing CHO cells were grown in F-12 DMEM medium with 10% FBS, 1% penicillin-streptomycin solution, and 400 μg/ml of Zeocin. Cells were seeded 24 h prior to the assay in 96 well plates so as to get ˜50,000 cells per well on the day of experiment. Cells were treated with the test compounds for 10 minutes followed by the addition of AITC at a final concentration of 30 μM (for human TRPA1) and/or 10 μM (for rat TRPA1) and 5 μCi/ml ^45Ca^+2 for 3 minutes. Cells were washed and lysed using a buffer containing 1% Triton X-100, 0.1% deoxycholate and 0.1% SDS. Radioactivity in the lysate was measured in a Packard TopCount after addition of liquid scintillant. (Toth et al, Life Sciences (2003) 73, 487-498; McNamara C R et al, Proceedings of the National Academy of Sciences, (2007) 104, 13525-13530).
(§5) Concentration response curves were plotted as a % of maximal response obtained in the absence of test antagonist. IC50 values can be calculated from concentration response curve by nonlinear regression analysis using GraphPad PRISM software.

[2] = biological target: T2, rat TRPA1 (Rattus norvegicus, UniProt Q6RI86); experiment: 45Calcium uptake assay, inhibition of AITC induced calcium uptake in rat TRPA1 expressing CHO cells; format: cell-based; conditions: AITC 10 μM; for inhibition at 1 µM: 1.0 μM compound, read-out: rat TRPA1 Percentage inhibition at 1.0 μM; for inhibition at 10 µM: 10.0 μM compound, read-out: rat TRPA1 Percentage inhibition at 10.0 μM
T2 construct: expressed in transfected cells; host or cells: CHO cells (Zeocin selection)
Excerpt: as §1, §2, §3, §4, §5

T1 sequence (O75762 whole entry): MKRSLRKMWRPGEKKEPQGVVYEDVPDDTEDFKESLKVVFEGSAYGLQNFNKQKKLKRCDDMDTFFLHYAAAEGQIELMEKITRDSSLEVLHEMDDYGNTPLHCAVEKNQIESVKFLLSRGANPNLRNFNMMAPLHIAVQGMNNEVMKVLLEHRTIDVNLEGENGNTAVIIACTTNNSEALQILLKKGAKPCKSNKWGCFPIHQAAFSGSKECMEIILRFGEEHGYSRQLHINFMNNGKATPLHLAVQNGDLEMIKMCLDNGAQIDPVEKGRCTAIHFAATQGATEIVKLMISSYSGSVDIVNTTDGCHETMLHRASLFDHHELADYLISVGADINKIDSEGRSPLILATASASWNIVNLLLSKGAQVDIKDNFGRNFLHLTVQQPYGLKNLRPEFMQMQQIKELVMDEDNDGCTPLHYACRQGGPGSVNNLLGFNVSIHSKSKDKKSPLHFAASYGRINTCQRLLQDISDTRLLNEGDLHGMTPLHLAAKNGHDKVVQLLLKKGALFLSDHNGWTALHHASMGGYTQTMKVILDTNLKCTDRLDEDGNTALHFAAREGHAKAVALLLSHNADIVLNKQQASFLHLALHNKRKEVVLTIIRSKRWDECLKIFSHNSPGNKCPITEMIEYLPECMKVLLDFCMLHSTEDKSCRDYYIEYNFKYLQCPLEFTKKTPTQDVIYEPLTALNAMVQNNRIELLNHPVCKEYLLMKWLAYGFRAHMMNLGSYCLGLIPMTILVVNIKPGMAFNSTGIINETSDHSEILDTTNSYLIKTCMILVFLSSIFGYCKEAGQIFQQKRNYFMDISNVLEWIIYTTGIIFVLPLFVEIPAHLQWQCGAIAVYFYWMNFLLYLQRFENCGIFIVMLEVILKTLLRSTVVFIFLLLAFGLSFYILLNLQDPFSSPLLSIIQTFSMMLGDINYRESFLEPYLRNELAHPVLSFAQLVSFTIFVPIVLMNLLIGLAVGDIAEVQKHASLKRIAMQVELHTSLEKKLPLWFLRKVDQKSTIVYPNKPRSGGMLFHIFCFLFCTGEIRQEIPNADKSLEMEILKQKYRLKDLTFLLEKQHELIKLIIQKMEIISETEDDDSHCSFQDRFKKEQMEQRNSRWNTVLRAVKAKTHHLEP
T2 sequence (Q6RI86 whole entry): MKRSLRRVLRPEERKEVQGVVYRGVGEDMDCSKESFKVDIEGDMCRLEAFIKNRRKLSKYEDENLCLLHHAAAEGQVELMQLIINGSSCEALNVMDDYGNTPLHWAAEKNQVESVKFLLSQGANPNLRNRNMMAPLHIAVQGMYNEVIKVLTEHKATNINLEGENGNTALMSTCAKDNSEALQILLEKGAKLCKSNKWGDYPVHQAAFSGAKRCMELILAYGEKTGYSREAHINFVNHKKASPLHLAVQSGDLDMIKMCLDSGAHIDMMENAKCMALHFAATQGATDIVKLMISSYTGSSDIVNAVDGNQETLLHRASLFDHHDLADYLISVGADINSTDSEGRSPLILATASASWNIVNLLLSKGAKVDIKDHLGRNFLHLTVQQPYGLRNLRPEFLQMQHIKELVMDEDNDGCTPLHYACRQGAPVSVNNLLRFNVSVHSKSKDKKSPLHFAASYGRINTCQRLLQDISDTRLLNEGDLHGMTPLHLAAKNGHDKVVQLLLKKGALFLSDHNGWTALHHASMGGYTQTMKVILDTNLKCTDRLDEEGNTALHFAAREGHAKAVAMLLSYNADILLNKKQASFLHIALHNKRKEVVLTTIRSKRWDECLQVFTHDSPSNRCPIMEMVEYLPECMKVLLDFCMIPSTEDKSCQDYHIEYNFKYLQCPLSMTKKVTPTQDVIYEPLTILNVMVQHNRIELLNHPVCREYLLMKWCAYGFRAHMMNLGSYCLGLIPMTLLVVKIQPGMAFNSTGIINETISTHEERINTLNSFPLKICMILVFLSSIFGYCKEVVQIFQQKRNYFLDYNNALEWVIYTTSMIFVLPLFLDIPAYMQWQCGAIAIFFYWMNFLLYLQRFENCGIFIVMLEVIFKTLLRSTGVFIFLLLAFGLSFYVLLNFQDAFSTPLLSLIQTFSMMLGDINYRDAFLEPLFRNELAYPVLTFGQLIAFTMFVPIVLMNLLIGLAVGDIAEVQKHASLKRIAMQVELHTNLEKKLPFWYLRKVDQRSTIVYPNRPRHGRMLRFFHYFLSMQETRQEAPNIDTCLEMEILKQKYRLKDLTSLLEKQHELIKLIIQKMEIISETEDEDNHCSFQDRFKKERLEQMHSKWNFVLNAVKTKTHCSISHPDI

Structure (SMILES)	inhibition at 1 µM [1] [%]	inhibition at 10 µM [1] [%]	pIC50 [1]	inhibition at 1 µM [2] [%]	inhibition at 10 µM [2] [%]	pIC50 [2]
Cn1c(=O)c2c(CC(=O)Nc3nc(-c4cccc(C(F)(F)F)c4)cs3)snc2n(C)c1=O [Example 1, 2-(5,7-Dimethyl-4,6-dioxo-4,5,6,7-tetrahydro[1,2]thiazolo[3,4-d]pyrimidin-3-yl)-N-{4-[3-(trifluoromethyl)phenyl]-1,3-thiazol-2-yl}acetamide]	95.2	100	> 7.30	71.3	100	< 7.00
Cn1c(=O)c2c(CC(=O)Nc3nc(-c4ccc(Cl)cc4)cs3)snc2n(C)c1=O [Example 2, N-[4-(4-Chlorophenyl)-1,3-thiazol-2-yl]-2-(5,7-dimethyl-4,6-dioxo-4,5,6,7-tetrahydro[1,2]thiazolo[3,4-d]pyrimidin-3-yl)acetamide]	99.7	100	> 7.30	34.9	43.8	–
Cn1c(=O)c2c(CC(=O)Nc3nc(-c4ccc(F)c(OC(F)(F)F)c4)cs3)snc2n(C)c1=O [Example 3, 2-(5,7-Dimethyl-4,6-dioxo-4,5,6,7-tetrahydro[1,2]thiazolo[3,4-d]pyrimidin-3-yl)-N-{4-[4-fluoro-3-(trifluoromethoxy)phenyl]-1,3-thiazol-2-yl}acetamide]	95.5	99.5	> 7.30	68.5	98.3	< 7.00
Cn1c(=O)c2c(CC(=O)Nc3nc(-c4ccc(C(F)(F)F)c(F)c4)cs3)snc2n(C)c1=O [Example 4, 2-(5,7-Dimethyl-4,6-dioxo-4,5,6,7-tetrahydro[1,2]thiazolo[3,4-d]pyrimidin-3-yl)-N-{4-[3-fluoro-4-(trifluoromethyl)phenyl]-1,3-thiazol-2-yl}acetamide]	99.8	100	> 7.30	72.2	100	–
Cn1c(=O)c2c(CC(=O)Nc3nc(-c4cccc(C(F)(F)F)c4F)cs3)snc2n(C)c1=O [Example 5, 2-(5,7-Dimethyl-4,6-dioxo-4,5,6,7-tetrahydro[1,2]thiazolo[3,4-d]pyrimidin-3-yl)-N-{4-[2-fluoro-3-(trifluoromethyl)phenyl]-1,3-thiazol-2-yl}acetamide]	98.1	99.1	> 7.30	95.6	98.5	–
Cn1c(=O)c2c(CC(=O)Nc3nc(-c4ccc(Cl)c(C(F)(F)F)c4)cs3)snc2n(C)c1=O [Example 6, 2-(5,7-Dimethyl-4,6-dioxo-4,5,6,7-tetrahydro[1,2]thiazolo[3,4-c]pyrimidin-3-yl)-N-{4-[4-chloro-3-(trifluoromethyl)phenyl]-1,3-thiazol-2-yl}acetamide]	99.3	99.6	> 7.30	97.3	99.3	< 7.00
Cn1c(=O)c2c(CC(=O)Nc3nc(-c4ccc(OC(F)(F)F)c(F)c4)cs3)snc2n(C)c1=O [Example 7, 2-(5,7-Dimethyl-4,6-dioxo-4,5,6,7-tetrahydro[1,2]thiazolo[3,4-c]pyrimidin-3-yl)-N-{4-[3-fluoro-4-(trifluoromethoxy)phenyl]-1,3-thiazol-2-yl}acetamide]	100	99.5	> 7.30	79.4	100	< 7.00
Cn1c(=O)c2c(CC(=O)Nc3nc(-c4ccc(F)c(C(F)(F)F)c4F)cs3)snc2n(C)c1=O [Example 9, N-{4-[2,4-Difluoro-3-(trifluoromethyl)phenyl]-1,3-thiazol-2-yl}-2-(5,7-dimethyl-4,6-dioxo-4,5,6,7-tetrahydro[1,2]thiazolo[3,4-d]pyrimidin-3-yl)acetamide]	98.4	98.1	> 7.30	94.7	94.1	–
Cn1c(=O)c2c(CC(=O)Nc3nc(-c4cc(F)c(C(F)(F)F)c(F)c4)cs3)snc2n(C)c1=O [Example 10, N-{4-[3,5-Difluoro-4-(trifluoromethyl)phenyl]-1,3-thiazol-2-yl}-2-(5,7-dimethyl-4,6-dioxo-4,5,6,7-tetrahydro[1,2]thiazolo[3,4-d]pyrimidin-3-yl)acetamide]	99.9	100	–	35.2	68.4	–
Cn1c(=O)c2c(CC(=O)Nc3ccn(-c4ccc(Br)cc4)n3)snc2n(C)c1=O [Example 11, N-[1-(4-Bromophenyl)-1H-pyrazol-3-yl]-2-(5,7-dimethyl-4,6-dioxo-4,5,6,7-tetrahydro[1,2]thiazolo[3,4-d]pyrimidin-3-yl)acetamide]	100	100	> 7.30	22.9	39.7	–
Cn1c(=O)c2c(CC(=O)Nc3nc(-c4ccc(Cl)cc4)cs3)nsc2n(C)c1=O [Example 12, N-[4-(4-Chlorophenyl)-1,3-thiazol-2-yl]-2-(5,7-dimethyl-4,6-dioxo-4,5,6,7-tetrahydro[1,2]thiazolo[5,4-d]pyrimidin-3-yl)acetamide]	98.4	99.2	> 7.30	94.6	99.5	< 7.00
Cn1c(=O)c2c(CC(=O)Nc3nc(-c4cccc(C(F)(F)F)c4)cs3)nsc2n(C)c1=O [Example 13, 2-(5,7-Dimethyl-4,6-dioxo-4,5,6,7-tetrahydro[1,2]thiazolo[5,4-d]pyrimidin-3-yl)-N-{4-[3-(trifluoromethyl)phenyl]-1,3-thiazol-2-yl}acetamide]	99.7	99.8	> 7.30	99.3	99.3	–
Cn1c(=O)c2c(CC(=O)Nc3nc(-c4ccc(C(F)(F)F)c(F)c4)cs3)nsc2n(C)c1=O [Example 19, 2-(5,7-Dimethyl-4,6-dioxo-4,5,6,7-tetrahydro[1,2]thiazolo[5,4-d]pyrimidin-3-yl)-N-{4-[3-fluoro-4-(trifluoromethyl)phenyl]-1,3-thiazol-2-yl}acetamide]	99.7	100	> 7.30	99.5	99.3	> 7.30
Cn1c(=O)c2c(CC(=O)Nc3nc(-c4ccc(F)c(C(F)(F)F)c4)cs3)nsc2n(C)c1=O [Example 20, 2-(5,7-Dimethyl-4,6-dioxo-4,5,6,7-tetrahydro[1,2]thiazolo[5,4-d]pyrimidin-3-yl)-N-{4-[4-fluoro-3-(trifluoromethyl)phenyl]-1,3-thiazol-2-yl}acetamide]	99.6	99.8	> 7.30	99.7	100	> 7.30
Cn1c(=O)c2c(CC(=O)Nc3nc(-c4ccc(C(F)(F)F)cc4F)cs3)nsc2n(C)c1=O [Example 21, 2-(5,7-Dimethyl-4,6-dioxo-4,5,6,7-tetrahydro[1,2]thiazolo[5,4-d]pyrimidin-3-yl)-N-{4-[2-fluoro-4-(trifluoromethyl)phenyl]-1,3-thiazol-2-yl}acetamide]	99.5	100	> 7.30	100	100	> 7.30
Cn1c(=O)c2c(CC(=O)Nc3nc(-c4cc(F)cc(C(F)(F)F)c4)cs3)nsc2n(C)c1=O [Example 22, 2-(5,7-Dimethyl-4,6-dioxo-4,5,6,7-tetrahydro[1,2]thiazolo[5,4-d]pyrimidin-3-yl)-N-{4-[3-fluoro-5-(trifluoromethyl)phenyl]-1,3-thiazol-2-yl}acetamide]	100	100	> 7.30	98.3	100	–
